{
  "source": "paper PMC4979471",
  "about": "(Cell Death Discovery, 2015)",
  "assay_in_all_cases": "Kinase selectivity, P33-radiolabeled assay",
  "format_in_all_cases": "biochemical",
  "details_in_all_cases": "10 μM ATP",
  "key": {"[1]": {"biological_target": "T1, PIM2 (Homo sapiens, UniProt Q9P1W9)", "T1 construct": "purchased Reaction Biology Corp", "T1 sequence (Q9P1W9 whole entry)": "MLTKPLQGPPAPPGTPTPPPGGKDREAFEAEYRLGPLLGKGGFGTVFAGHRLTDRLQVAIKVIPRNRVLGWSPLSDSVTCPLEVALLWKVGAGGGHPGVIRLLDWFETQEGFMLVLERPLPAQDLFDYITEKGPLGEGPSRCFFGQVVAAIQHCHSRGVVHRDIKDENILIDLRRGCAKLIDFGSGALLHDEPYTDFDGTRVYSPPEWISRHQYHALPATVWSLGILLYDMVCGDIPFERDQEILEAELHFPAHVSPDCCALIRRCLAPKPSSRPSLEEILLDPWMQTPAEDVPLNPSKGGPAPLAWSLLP", "how_it_was_run": "(§1)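 Each enzyme was exposed to 10 μM compound, with duplicate measurements, in reactions containing 10 μM ATP. Numbers are remaining activity as a percent of the vehicle (DMSO) signal.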"}, "[2]": {"biological_target": "T2, CDK2/cyclin A (Homo sapiens, UniProt P24941)", "T2 construct": "purchased Reaction Biology Corp", "how_it_was_run": "as §1"}, "[3]": {"biological_target": "T3, CDK4/cyclin D3 (Homo sapiens, UniProt P11802)", "T3 construct": "purchased Reaction Biology Corp", "T3 sequence (P11802 whole entry)": "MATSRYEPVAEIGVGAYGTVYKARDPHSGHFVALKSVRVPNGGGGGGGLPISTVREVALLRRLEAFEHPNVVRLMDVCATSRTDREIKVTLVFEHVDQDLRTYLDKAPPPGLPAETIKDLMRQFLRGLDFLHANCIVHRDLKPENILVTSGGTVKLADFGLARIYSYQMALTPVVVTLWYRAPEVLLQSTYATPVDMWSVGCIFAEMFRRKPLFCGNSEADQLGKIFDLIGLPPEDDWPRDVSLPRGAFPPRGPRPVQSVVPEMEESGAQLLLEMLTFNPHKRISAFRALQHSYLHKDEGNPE", "T3 sequence (P30281 whole entry partner)": "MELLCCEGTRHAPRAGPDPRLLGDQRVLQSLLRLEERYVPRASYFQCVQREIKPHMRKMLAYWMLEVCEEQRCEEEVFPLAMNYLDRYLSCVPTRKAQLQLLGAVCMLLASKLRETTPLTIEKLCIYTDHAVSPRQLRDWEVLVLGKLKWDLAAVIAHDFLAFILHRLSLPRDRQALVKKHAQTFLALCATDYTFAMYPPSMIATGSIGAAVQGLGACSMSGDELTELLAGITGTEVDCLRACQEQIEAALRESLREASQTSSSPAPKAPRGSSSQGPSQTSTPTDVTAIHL", "how_it_was_run": "as §1"}, "[4]": {"biological_target": "T4, JNK3 (Homo sapiens, UniProt P53779)", "T4 construct": "purchased Reaction Biology Corp", "T4 sequence (P53779 whole entry)": "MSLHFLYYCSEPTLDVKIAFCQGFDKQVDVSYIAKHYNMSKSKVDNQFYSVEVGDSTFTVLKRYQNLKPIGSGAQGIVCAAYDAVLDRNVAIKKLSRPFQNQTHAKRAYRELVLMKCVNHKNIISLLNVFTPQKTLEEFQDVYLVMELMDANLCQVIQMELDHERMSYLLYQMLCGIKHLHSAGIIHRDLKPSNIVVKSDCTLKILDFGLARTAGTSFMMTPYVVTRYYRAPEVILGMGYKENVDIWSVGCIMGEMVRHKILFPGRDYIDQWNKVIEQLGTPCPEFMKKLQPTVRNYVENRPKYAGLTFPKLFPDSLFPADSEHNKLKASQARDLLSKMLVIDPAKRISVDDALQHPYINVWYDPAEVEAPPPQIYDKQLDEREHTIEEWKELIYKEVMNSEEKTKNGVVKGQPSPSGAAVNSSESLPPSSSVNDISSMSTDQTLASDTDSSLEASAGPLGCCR", "how_it_was_run": "as §1"}, "[5]": {"biological_target": "T5, ASK1/MAP3K5 (Homo sapiens, UniProt Q99683)", "T5 construct": "purchased Reaction Biology Corp", "T5 sequence (Q99683 1-1374)": "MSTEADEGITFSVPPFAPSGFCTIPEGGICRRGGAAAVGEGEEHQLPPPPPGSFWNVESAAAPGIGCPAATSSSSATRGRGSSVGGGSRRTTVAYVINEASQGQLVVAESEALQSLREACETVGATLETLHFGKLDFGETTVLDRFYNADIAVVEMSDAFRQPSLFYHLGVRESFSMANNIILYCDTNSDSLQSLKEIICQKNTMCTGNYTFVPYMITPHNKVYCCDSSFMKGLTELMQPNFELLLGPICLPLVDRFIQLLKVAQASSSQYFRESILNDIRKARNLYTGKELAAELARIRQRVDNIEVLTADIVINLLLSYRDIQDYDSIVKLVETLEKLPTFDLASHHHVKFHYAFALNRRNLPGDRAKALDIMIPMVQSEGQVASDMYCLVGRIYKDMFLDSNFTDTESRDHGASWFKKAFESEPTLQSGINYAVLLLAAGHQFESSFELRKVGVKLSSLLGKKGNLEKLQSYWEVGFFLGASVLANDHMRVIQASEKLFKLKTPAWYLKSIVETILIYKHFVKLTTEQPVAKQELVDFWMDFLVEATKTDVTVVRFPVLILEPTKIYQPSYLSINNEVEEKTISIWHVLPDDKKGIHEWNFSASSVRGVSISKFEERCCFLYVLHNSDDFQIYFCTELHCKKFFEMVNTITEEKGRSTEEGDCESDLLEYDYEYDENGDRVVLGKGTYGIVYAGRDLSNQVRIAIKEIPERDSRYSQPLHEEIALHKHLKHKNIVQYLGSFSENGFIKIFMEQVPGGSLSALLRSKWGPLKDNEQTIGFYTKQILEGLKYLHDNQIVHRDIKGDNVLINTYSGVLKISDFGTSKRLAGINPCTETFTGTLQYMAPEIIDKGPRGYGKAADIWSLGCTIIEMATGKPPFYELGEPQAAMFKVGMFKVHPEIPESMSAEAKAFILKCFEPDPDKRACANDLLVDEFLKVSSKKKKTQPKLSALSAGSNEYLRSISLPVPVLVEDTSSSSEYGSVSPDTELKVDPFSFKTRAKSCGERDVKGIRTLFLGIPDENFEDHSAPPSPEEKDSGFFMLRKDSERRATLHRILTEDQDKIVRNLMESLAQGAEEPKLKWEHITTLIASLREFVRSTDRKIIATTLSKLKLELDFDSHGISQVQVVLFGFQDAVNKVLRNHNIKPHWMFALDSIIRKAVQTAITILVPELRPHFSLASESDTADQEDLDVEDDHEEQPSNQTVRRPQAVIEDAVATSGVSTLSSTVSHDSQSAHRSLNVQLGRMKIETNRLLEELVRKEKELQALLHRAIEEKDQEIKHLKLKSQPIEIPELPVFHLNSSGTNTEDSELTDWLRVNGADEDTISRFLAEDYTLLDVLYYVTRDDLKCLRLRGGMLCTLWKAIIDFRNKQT", "how_it_was_run": "as §1"}, "[6]": {"biological_target": "T6, CAMK4 (Homo sapiens, UniProt Q16566)", "T6 construct": "purchased Reaction Biology Corp", "T6 sequence (Q16566 1-473)": "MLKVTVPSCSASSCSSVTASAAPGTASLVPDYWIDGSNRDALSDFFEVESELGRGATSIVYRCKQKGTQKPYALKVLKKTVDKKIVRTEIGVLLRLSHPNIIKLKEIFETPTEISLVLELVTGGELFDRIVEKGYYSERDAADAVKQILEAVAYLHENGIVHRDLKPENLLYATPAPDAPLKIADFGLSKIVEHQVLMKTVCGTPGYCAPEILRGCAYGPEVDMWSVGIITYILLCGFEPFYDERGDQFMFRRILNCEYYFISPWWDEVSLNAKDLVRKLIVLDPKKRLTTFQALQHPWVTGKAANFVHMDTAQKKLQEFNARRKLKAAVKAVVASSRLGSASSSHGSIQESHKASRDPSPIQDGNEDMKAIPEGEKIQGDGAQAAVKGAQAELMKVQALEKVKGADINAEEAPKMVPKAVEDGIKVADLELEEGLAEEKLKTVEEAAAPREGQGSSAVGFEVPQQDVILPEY", "how_it_was_run": "as §1"}, "[7]": {"biological_target": "T7, NEK3 (Homo sapiens, UniProt P51956)", "T7 construct": "purchased Reaction Biology Corp", "T7 sequence (P51956 1-506)": "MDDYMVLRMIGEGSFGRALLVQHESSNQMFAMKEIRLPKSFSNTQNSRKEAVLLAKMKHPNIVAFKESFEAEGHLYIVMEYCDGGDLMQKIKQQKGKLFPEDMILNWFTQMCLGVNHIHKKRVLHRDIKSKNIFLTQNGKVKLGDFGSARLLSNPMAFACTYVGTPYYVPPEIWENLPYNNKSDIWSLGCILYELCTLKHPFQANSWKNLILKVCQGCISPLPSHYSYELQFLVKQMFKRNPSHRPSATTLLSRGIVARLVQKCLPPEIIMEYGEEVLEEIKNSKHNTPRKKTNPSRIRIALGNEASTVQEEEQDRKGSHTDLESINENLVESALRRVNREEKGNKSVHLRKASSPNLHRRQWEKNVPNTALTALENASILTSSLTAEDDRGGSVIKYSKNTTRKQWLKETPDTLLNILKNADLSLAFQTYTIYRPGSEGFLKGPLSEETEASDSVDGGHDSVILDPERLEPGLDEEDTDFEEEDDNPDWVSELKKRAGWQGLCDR", "how_it_was_run": "as §1"}, "[8]": {"details": "read-out: % Enzyme Activity (relative to DMSO controls) AVG"}, "[9]": {"details": "read-out: % Enzyme Activity (relative to DMSO controls) Data 1"}, "[10]": {"details": "read-out: % Enzyme Activity (relative to DMSO controls) Data 2"}},
  "note": "Read-outs that look alike come from different tables or passages of the source.",
  "data": [
    {"smiles": "CC(C)(C)C(=O)N1N=CC[C@H]1c1ccccc1", "note": "[GSK′963]", "values": [
      {"measurement": "remaining activity at 10 µM", "setting": "[1]; [8]", "result": 115, "unit": "%"},
      {"measurement": "remaining activity at 10 µM", "setting": "[1]; [9]", "result": 112, "unit": "%"},
      {"measurement": "remaining activity at 10 µM", "setting": "[1]; [10]", "result": 118, "unit": "%"},
      {"measurement": "remaining activity at 10 µM", "setting": "[2]; [8]", "result": 93.6, "unit": "%"},
      {"measurement": "remaining activity at 10 µM", "setting": "[2]; [9]", "result": 95.3, "unit": "%"},
      {"measurement": "remaining activity at 10 µM", "setting": "[2]; [10]", "result": 92, "unit": "%"},
      {"measurement": "remaining activity at 10 µM", "setting": "[3]; [8]", "result": 96.2, "unit": "%"},
      {"measurement": "remaining activity at 10 µM", "setting": "[3]; [9]", "result": 98.3, "unit": "%"},
      {"measurement": "remaining activity at 10 µM", "setting": "[3]; [10]", "result": 94.1, "unit": "%"},
      {"measurement": "remaining activity at 10 µM", "setting": "[4]; [8]", "result": 100, "unit": "%"},
      {"measurement": "remaining activity at 10 µM", "setting": "[4]; [9]", "result": 101, "unit": "%"},
      {"measurement": "remaining activity at 10 µM", "setting": "[4]; [10]", "result": 100, "unit": "%"},
      {"measurement": "remaining activity at 10 µM", "setting": "[5]; [8]", "result": 98.8, "unit": "%"},
      {"measurement": "remaining activity at 10 µM", "setting": "[5]; [9]", "result": 99.4, "unit": "%"},
      {"measurement": "remaining activity at 10 µM", "setting": "[5]; [10]", "result": 98.1, "unit": "%"},
      {"measurement": "remaining activity at 10 µM", "setting": "[6]; [8]", "result": 96.7, "unit": "%"},
      {"measurement": "remaining activity at 10 µM", "setting": "[6]; [9]", "result": 95.5, "unit": "%"},
      {"measurement": "remaining activity at 10 µM", "setting": "[6]; [10]", "result": 97.9, "unit": "%"},
      {"measurement": "remaining activity at 10 µM", "setting": "[7]; [8]", "result": 93.5, "unit": "%"},
      {"measurement": "remaining activity at 10 µM", "setting": "[7]; [9]", "result": 93.2, "unit": "%"},
      {"measurement": "remaining activity at 10 µM", "setting": "[7]; [10]", "result": 93.8, "unit": "%"}
    ]}
  ]
}
